Data published in patent publication US20170273922A1, “UREA AND BIS-UREA BASED COMPOUNDS AND ANALOGUES THEREOF USEFUL IN THE TREATMENT OF ANDROGEN RECEPTOR MEDIATED DISEASES OR DISORDERS” (THE ROYAL INSTITUTION FOR THE ADVACEMENT OF LEARNING/MCGILL …, priority 2014, published 2017).

Key:
Assay type in all cases: cell-based
[1] = MTT assay (cytotoxicity), LNCaP cells; details: human, LNCaP cells, 72 h
Method: (§1) MTT assays: LNCaP, 22Rv1, Du145, H1975, A549, MB231 and MCF-7 cells are maintained in RPMI 1640 supplemented with 10% FBS. Cells were seeded at a density of 6-7×10^3 cells per well in 96-well plates. After overnight incubation, cells in fresh RPMI 1640 supplemented with 10% FBS were exposed to DMSO vehicle control or test compounds at designated concentrations for 72 h. Viable cells were evaluated by MTT assays. Experiments were performed in triplicate and repeated at least twice.

[2] = MTT assay (cytotoxicity), 22Rv1 cells; details: human, 22Rv1 cells, 72 h
Method: as §1

[3] = MTT assay (cytotoxicity), DU145 cells; details: human, DU145 cells
Method: as §1

[4] = biological target: T1, endogenous AR T877A mutant in LNCaP cells (Homo sapiens, UniProt P10275, T878A); assay: PSA-luc reporter assay in LNCaP cells (endogenous AR T877A mutant); details: PSA-luc, 24 h
T1 construct: LNCaP cells, which express endogenous AR T877A mutant; endogenous in cells; host or cells: LNCaP
T1 sequence (P10275 1-920 T878A): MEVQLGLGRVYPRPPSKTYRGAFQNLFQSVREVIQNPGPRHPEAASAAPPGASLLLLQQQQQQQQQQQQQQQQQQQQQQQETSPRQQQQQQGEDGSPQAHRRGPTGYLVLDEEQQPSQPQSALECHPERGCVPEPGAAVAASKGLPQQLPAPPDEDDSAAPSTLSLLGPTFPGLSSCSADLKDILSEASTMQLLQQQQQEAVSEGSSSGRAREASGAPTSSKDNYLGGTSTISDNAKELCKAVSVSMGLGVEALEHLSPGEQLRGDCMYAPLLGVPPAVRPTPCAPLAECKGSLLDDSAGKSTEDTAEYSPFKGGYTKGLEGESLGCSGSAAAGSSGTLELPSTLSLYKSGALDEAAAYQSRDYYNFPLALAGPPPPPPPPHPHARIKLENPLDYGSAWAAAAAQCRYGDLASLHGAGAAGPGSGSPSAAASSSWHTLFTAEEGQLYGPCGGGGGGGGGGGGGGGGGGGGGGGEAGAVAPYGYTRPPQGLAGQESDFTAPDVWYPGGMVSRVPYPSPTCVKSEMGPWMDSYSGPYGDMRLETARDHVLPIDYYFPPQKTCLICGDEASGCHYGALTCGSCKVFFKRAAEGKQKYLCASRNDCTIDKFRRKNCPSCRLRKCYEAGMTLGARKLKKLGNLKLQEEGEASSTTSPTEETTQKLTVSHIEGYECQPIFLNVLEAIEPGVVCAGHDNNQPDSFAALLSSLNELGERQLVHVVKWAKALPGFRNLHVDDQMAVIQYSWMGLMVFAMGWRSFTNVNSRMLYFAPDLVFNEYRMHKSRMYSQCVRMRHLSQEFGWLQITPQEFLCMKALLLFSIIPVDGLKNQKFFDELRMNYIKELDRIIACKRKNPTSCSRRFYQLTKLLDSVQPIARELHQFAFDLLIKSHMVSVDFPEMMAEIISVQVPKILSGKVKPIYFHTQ
Method: Experiments were in duplicate and repeated three times. […] LNCaP cells in whole medium were exposed to DMSO vehicle control or compounds for 24 h.

[5] = biological target: T2, T877A mutant of full-length AR (Homo sapiens, UniProt P10275, T878A); assay: AR T877A mutant PSA-luc reporter assay in PC3 cells; details: absence of DHT, 24 h
T2 sequence (P10275 1-920 T878A): T1 sequence (P10275 1-920 T878A)
From the text: ENZ, enzalutamide; Bic, bicalutamide; OHF, hydroxyflutamide.

SMILES: COc1cccc(/C=C/NC(=O)Nc2ccc3c(c2)OCO3)c1 [Compound 431]
- IC50 at 72 h ([1]; Table 2.3): 17.3 µM
- IC50 at 72 h ([2]; Table 2.3): > 20 µM
- IC50 at 72 h ([3]; Table 2.3): > 20 µM

SMILES: O=C(N/C=C/c1ccc(C(F)(F)F)cc1)Nc1ccc2c(c1)OCO2 [Compound 432]
- IC50 at 72 h ([1]; Table 2.3): > 20 µM
- IC50 at 72 h ([2]; Table 2.3): > 20 µM
- IC50 at 72 h ([3]; Table 2.3): > 20 µM

SMILES: O=C(N/C=C/c1ccco1)Nc1ccc([N+](=O)[O-])c(C(F)(F)F)c1 [Compound 434]
- IC50 at 72 h ([1]; Table 2.4): 2 µM
- IC50 at 72 h ([2]; Table 2.4): 5.6 µM
- IC50 at 72 h ([3]; Table 2.4): 7.8 µM

SMILES: O=C(N/C=C/c1cccc(C(F)(F)F)c1)Nc1cccc(NC(=O)N/C=C/c2cccc(C(F)(F)F)c2)c1 [Compound 440]
- IC50 at 72 h ([1]; Table 5.1): 1.7 µM
- IC50 at 72 h ([2]; Table 5.1): 4.9 µM
- IC50 at 72 h ([3]; Table 5.1): 5.1 µM

SMILES: O=C(N/C=C/c1ccc2c(c1)OCO2)Nc1ccc([N+](=O)[O-])c(C(F)(F)F)c1 [Compound 444]
- IC50 at 72 h ([1]; Table 2.4): 14.6 µM
- IC50 at 72 h ([2]; Table 2.4): 17.5 µM
- IC50 at 72 h ([3]; Table 2.4): 14 µM

SMILES: O=C(N/C=C/c1cccc(C(F)(F)F)c1)NCc1ccc([N+](=O)[O-])cc1 [Compound 447]
- IC50 at 72 h ([1]; Table 2.4): 7.5 µM
- IC50 at 72 h ([2]; Table 2.4): 7.5 µM
- IC50 at 72 h ([3]; Table 2.4): 8 µM
- effect of increasing DHT from 1 nM to 10 nM on inhibitory activity in LNCaP cells [4]: not competed out

SMILES: O=C(NCCc1cccc(C(F)(F)F)c1)Nc1ccc([N+](=O)[O-])c(C(F)(F)F)c1 [Compound 448]
- IC50 at 72 h ([1]; Table 2.4): 1.8 µM
- IC50 at 72 h ([2]; Table 2.4): 4.5 µM
- IC50 at 72 h ([3]; Table 2.4): 7.5 µM

SMILES: CC(C)(C)OC(=O)n1cc(/C=C/NC(=O)Nc2ccc([N+](=O)[O-])c(C(F)(F)F)c2)c2ccccc21 [Compound 450]
- IC50 at 72 h ([1]; Table 2.4): 1.8 µM
- IC50 at 72 h ([2]; Table 2.4): 4 µM
- IC50 at 72 h ([3]; Table 2.4): 4.9 µM

SMILES: O=C(N/C=C/c1cccc(C(F)(F)F)c1)Nc1ccccc1NC(=O)N/C=C/c1cccc(C(F)(F)F)c1 [Compound 451]
- IC50 at 72 h ([1]; Table 5.1): 2.4 µM
- IC50 at 72 h ([2]; Table 5.1): 4.4 µM
- IC50 at 72 h ([3]; Table 5.1): 5.4 µM

SMILES: CC(C)(C)OC(=O)n1cc(/C=C/NC(=O)Nc2ccc(NC(=O)N/C=C/c3cn(C(=O)OC(C)(C)C)c4ccccc34)cc2)c2ccccc21 [Compound 452]
- IC50 at 72 h ([1]; Table 5.1): > 20 µM
- IC50 at 72 h ([2]; Table 5.1): > 20 µM
- IC50 at 72 h ([3]; Table 5.1): 3.4 µM

SMILES: CC(C)(C)OC(=O)n1cnc(/C=C/NC(=O)Nc2ccc([N+](=O)[O-])c(C(F)(F)F)c2)c1 [Compound 453]
- IC50 at 72 h ([1]; Table 2.4): 4 µM
- IC50 at 72 h ([2]; Table 2.4): > 20 µM
- IC50 at 72 h ([3]; Table 2.4): > 20 µM

SMILES: O=C(N/C=C/c1ccc([N+](=O)[O-])c(C(F)(F)F)c1)NCc1cccc(C(F)(F)F)c1 [Compound 461]
- IC50 at 72 h ([1]; Table 2.4): 2.4 µM
- IC50 at 72 h ([2]; Table 2.4): 3.4 µM
- IC50 at 72 h ([3]; Table 2.4): 3.4 µM

SMILES: O=C(N/C=C/c1cc(C(F)(F)F)cc(C(F)(F)F)c1)Nc1ccc2ncccc2c1 [Compound 515]
- IC50 at 72 h ([1]; Table 2.3): > 10 µM
- IC50 at 72 h ([2]; Table 2.3): > 10 µM
- IC50 at 72 h ([3]; Table 2.3): > 10 µM

SMILES: O=C(N/C=C/c1cc(C(F)(F)F)ccc1C(F)(F)F)Nc1ccc2ncccc2c1 [Compound 517]
- IC50 at 72 h ([1]; Table 2.3): 3.4 µM
- IC50 at 72 h ([2]; Table 2.3): > 10 µM
- IC50 at 72 h ([3]; Table 2.3): 6.2 µM

SMILES: O=C(N/C=C/c1cccc(C(F)(F)F)c1)Nc1ccc2[nH]ccc2c1 [Compound 520]
- IC50 at 72 h ([1]; Table 2.3): 6.5 µM
- IC50 at 72 h ([2]; Table 2.3): > 10 µM
- IC50 at 72 h ([3]; Table 2.3): > 10 µM

SMILES: O=C(Nc1cccc(C(F)(F)F)c1)Nc1ccc2[nH]ccc2c1 [Compound 522]
- IC50 at 72 h ([1]; Table 4.1): > 10 µM
- IC50 at 72 h ([2]; Table 4.1): > 10 µM
- IC50 at 72 h ([3]; Table 4.1): > 10 µM

SMILES: O=C(N/C=C/c1cc(C(F)(F)F)cc(C(F)(F)F)c1)Nc1cnc2ccccc2c1 [Compound 523]
- IC50 at 72 h ([1]; Table 2.3): 8 µM
- IC50 at 72 h ([2]; Table 2.3): 8.4 µM
- IC50 at 72 h ([3]; Table 2.3): 10 µM

SMILES: O=C(N/C=C/c1cc(C(F)(F)F)ccc1C(F)(F)F)Nc1cnc2ccccc2c1 [Compound 524]
- IC50 at 72 h ([1]; Table 2.3): 3.4 µM
- IC50 at 72 h ([2]; Table 2.3): 8.4 µM
- IC50 at 72 h ([3]; Table 2.3): 7.4 µM

SMILES: O=C(N/C=C/c1cccc(C(F)(F)F)c1)Nc1cnc2ccccc2c1 [Compound 525]
- IC50 at 72 h ([1]; Table 2.3): > 10 µM
- IC50 at 72 h ([2]; Table 2.3): > 10 µM
- IC50 at 72 h ([3]; Table 2.3): > 10 µM

SMILES: O=C(Nc1cc(C(F)(F)F)cc(C(F)(F)F)c1)Nc1ccc2[nH]ccc2c1 [Compound 530]
- IC50 at 72 h ([1]; Table 4.1): 6 µM
- IC50 at 72 h ([2]; Table 4.1): 7.1 µM
- IC50 at 72 h ([3]; Table 4.1): 8.3 µM

SMILES: O=C(N/C=C/c1cc(C(F)(F)F)cc(C(F)(F)F)c1)Nc1ccn(C(=O)N/C=C/c2cc(C(F)(F)F)cc(C(F)(F)F)c2)c(=O)n1 [Compound 532]
- IC50 at 72 h ([1]; Table 5.1): 2.4 µM
- IC50 at 72 h ([2]; Table 5.1): 4.3 µM
- IC50 at 72 h ([3]; Table 5.1): 5.1 µM

SMILES: CC/C=C(\C)CN(C(=O)N/C=C/c1cc(C(F)(F)F)cc(C(F)(F)F)c1)c1ccc(C#N)nc1 [Compound 534]
- IC50 at 72 h ([1]; Table 2.5): 6 µM
- IC50 at 72 h ([2]; Table 2.5): 7.3 µM
- IC50 at 72 h ([3]; Table 2.5): 7.1 µM

SMILES: O=C(Nc1cccc(C(F)(F)F)c1)Nc1ccncn1 [Compound 574]
- IC50 at 72 h ([1]; Table 4.1): 13.8 µM
- IC50 at 72 h ([2]; Table 4.1): > 20 µM
- IC50 at 72 h ([3]; Table 4.1): > 20 µM

SMILES: O=C(Nc1cc(C(F)(F)F)cc(C(F)(F)F)c1)Nc1ccncn1 [Compound 578]
- IC50 at 72 h ([1]; Table 4.1): 1.3 µM
- IC50 at 72 h ([2]; Table 4.1): 5.5 µM
- IC50 at 72 h ([3]; Table 4.1): 2.4 µM

SMILES: CC(C)(O)C(=O)Nc1ccc([N+](=O)[O-])c(C(F)(F)F)c1 [hydroxyflutamide, reference compound]
- agonism of AR T877A mutant (PSA-luc) [5]: activated
